Key:
Format in all cases: in vivo
Diabrotica balteata = test: Example B2: Diabrotica balteata (corn root worm), maize sprouts, L2 larvae; details: for percent control (mortality or growth inhibition) at 200 ppm: Diabrotica balteata, 96 h, application rate of 200 ppm, 4 days after infestation, read-out: control in at least one of the two categories (mortality or growth inhibition)
Procedure: Maize sprouts placed onto an agar layer in 24-well microtiter plates were treated with aqueous test solutions prepared from 10,000 ppm DMSO stock solutions by spraying. After drying, the plates were infested with L2 larvae (6 to 10 per well). The samples were assessed for mortality and growth inhibition in comparison to untreated samples 4 days after infestation.

Plutella xylostella [1] = test: Example B4: Plutella xylostella (diamond back moth), artificial diet, eggs; details: Plutella xylostella, 192 h; application rate of 200 ppm; 8 days after infestation; read-out: control in at least one of the two categories (mortality or growth inhibition)
Procedure: 24-well microtiter plates with artificial diet were treated with aqueous test solutions prepared from 10′000 ppm DMSO stock solutions by pipetting. After drying, Plutella eggs were pipetted through a plastic stencil onto a gel blotting paper and the plate was closed with it. The samples were assessed for mortality and growth inhibition in comparison to untreated samples 8 days after infestation.

Spodoptera littoralis [2] = test: Example B5: Spodoptera littoralis (Egyptian cotton leaf worm), cotton leaf discs, L1 larvae; details: foliar, 72 h, application rate of 200 ppm, 3 days after infestation, read-out: control in at least one of the three categories (mortality, anti-feedant effect, or growth inhibition)
Procedure: Cotton leaf discs were placed onto agar in 24-well microtiter plates and sprayed with aqueous test solutions prepared from 10,000 ppm DMSO stock solutions. After drying the leaf discs were infested with five L1 larvae. The samples were assessed for mortality, anti-feeding effect, and growth inhibition in comparison to untreated samples 3 days after infestation. Control of Spodoptera littoralis by a test sample is given when at least one of the categories mortality, anti-feedant effect, and growth inhibition is higher than the untreated sample.

Myzus persicae [3] = test: Example B9: Myzus persicae (green peach aphid) feeding/contact activity, sunflower leaf discs; details: foliar, 144 h, application rate of 200 ppm, 6 days after infestation
Procedure: Sunflower leaf discs were placed onto agar in a 24-well microtiter plate and sprayed with aqueous test solutions prepared from 10,000 ppm DMSO stock solutions. After drying, the leaf discs were infested with an aphid population of mixed ages. The samples were assessed for mortality 6 days after infestation.

Chilo suppressalis = test: Example B1: Chilo suppressalis (striped rice stemborer), artificial diet, L2 larvae; details: 144 h, application rate of 200 ppm, 6 days after infestation, read-out: control in at least one of the three categories (mortality, anti-feedant effect, or growth inhibition)
Procedure: 24-well microtiter plates with artificial diet were treated with aqueous test solutions prepared from 10,000 ppm DMSO stock solutions by pipetting. After drying, the plates were infested with L2 larvae (6-8 per well). The samples were assessed for mortality, anti-feeding effect, and growth inhibition in comparison to untreated samples 6 days after infestation. Control of Chilo suppressalis by a test sample is given when at least one of the categories mortality, anti-feedant effect, and growth inhibition is higher than the untreated sample.

Myzus persicae [4] = test: Example B3: Myzus persicae (green peach aphid) intrinsic activity; details: 120 h, test rate of 12 ppm, 5 days after infestation
Procedure: Test compounds prepared from 10′000 ppm DMSO stock solutions were applied by pipette into 24-well microtiter plates and mixed with sucrose solution. The plates were closed with a stretched Parafilm. A plastic stencil with 24 holes was placed onto the plate and infested pea seedlings were placed directly on the Parafilm. The infested plate was closed with a gel blotting paper and another plastic stencil and then turned upside down. The samples were assessed for mortality 5 days after infestation.

Spodoptera littoralis [5] = test: Example B6: Spodoptera littoralis, uptake by lettuce roots from agar; details: 144 h, test rate of 12.5 ppm, 6 days after infestation, read-out: effect in at least one of the three categories (mortality, anti-feeding, or growth inhibition)
Source text: Test compounds were applied by pipette from 10,000 ppm DMSO stock solutions into 24-well plates and mixed with agar. Lettuce seeds were placed onto the agar and the multi well plate was closed by another plate which contained also agar. After 7 days the compound was absorbed by the roots and the lettuce grew into the lid plate. The lettuce leaves were then cut off into the lid plate. Spodoptera eggs were pipetted through a plastic stencil onto a humid gel blotting paper and the lid plate was closed with it. The samples were assessed for mortality, anti-feedant effect and growth inhibition in comparison to untreated samples 6 days after infestation.

Myzus persicae [6] = test: Example B7: Myzus persicae (green peach aphid), 96-well sucrose solution; details: 120 h, application rate of 50 ppm, 5 days after infestation
Procedure: Test compounds prepared from 10′000 ppm DMSO stock solutions were applied by a liquid handling robot into 96-well microtiter plates and mixed with a sucrose solution. Parafilm was stretched over the 96-well microtiter plate and a plastic stencil with 96 holes was placed onto the plate. Aphids were sieved into the wells directly onto the Parafilm. The infested plates were closed with a gel blotting card and a second plastic stencil and then turned upside down. The samples were assessed for mortality 5 days after infestation.

Plutella xylostella [7] = test: Example B8: Plutella xylostella (diamondback moth), 96-well artificial diet; details: 216 h, application rate of 500 ppm, 9 days after infestation
Procedure: 96-well microtiter plates containing artificial diet were treated with aqueous test solutions, prepared from 10,000 ppm DMSO stock solutions, by a liquid handling robot. After drying, eggs (˜30 per well) were infested onto a netted lid which was suspended above the diet. The eggs hatch and L1 larvae move down to the diet. The samples were assessed for mortality 9 days after infestation.

SMILES: CC(NC(=O)c1cc(I)cc(I)c1)c1nccnc1-c1cnccn1 (centres unmarked) [Compound P17, 3,5-diiodo-N-[1-(3-pyrazin-2-ylpyrazin-2-yl)ethyl]benzamide]
- percent control (mortality or growth inhibition) at 200 ppm (Diabrotica balteata): ≥ 80%
- percent control (mortality or growth inhibition) at 200 ppm (Plutella xylostella [1]): ≥ 80%
- percent control (mortality, anti-feedant effect or growth inhibition) at 200 ppm (Spodoptera littoralis [2]): ≥ 80%
- mortality at 200 ppm (Myzus persicae [3]): ≥ 80%

SMILES: C[C@H](NC(=O)c1cc(C(F)(F)F)cc(C(F)(F)F)c1)c1nccnc1-c1cnccn1 [Compound E3, N-[(1S)-1-(3-pyrazin-2-ylpyrazin-2-yl)ethyl]-3,5-bis(trifluoromethyl)benzamide]
- percent control (mortality, anti-feedant effect or growth inhibition) at 200 ppm (Chilo suppressalis): ≥ 80%
- percent control (mortality or growth inhibition) at 200 ppm (Diabrotica balteata): ≥ 80%
- mortality at 12 ppm (Myzus persicae [4]): ≥ 80%
- percent control (mortality or growth inhibition) at 200 ppm (Plutella xylostella [1]): ≥ 80%
- percent control (mortality, anti-feedant effect or growth inhibition) at 200 ppm (Spodoptera littoralis [2]): ≥ 80%
- percent effect (mortality, anti-feeding or growth inhibition) at 12.5 ppm (Spodoptera littoralis [5]): ≥ 80%
- mortality at 50 ppm (Myzus persicae [6]): ≥ 80%
- mortality at 500 ppm (Plutella xylostella [7]): ≥ 80%

SMILES: CC(NC(=O)c1cc(Cl)nc(C(F)(F)F)c1)c1nccnc1-c1cnccn1 (centres unmarked) [Compound P14, 2-chloro-N-[1-(3-pyrazin-2-ylpyrazin-2-yl)ethyl]-6-(trifluoromethyl)pyridine-4-carboxamide]
- percent control (mortality, anti-feedant effect or growth inhibition) at 200 ppm (Chilo suppressalis): ≥ 80%
- percent control (mortality or growth inhibition) at 200 ppm (Diabrotica balteata): ≥ 80%
- percent control (mortality or growth inhibition) at 200 ppm (Plutella xylostella [1]): ≥ 80%
- percent control (mortality, anti-feedant effect or growth inhibition) at 200 ppm (Spodoptera littoralis [2]): ≥ 80%
- mortality at 200 ppm (Myzus persicae [3]): ≥ 80%

SMILES: CC(NC(=O)c1cc(C(F)(F)F)cc(C2(C#N)CC2)c1)c1nccnc1-c1cnccn1 (centres unmarked) [Compound P21]
- percent control (mortality, anti-feedant effect or growth inhibition) at 200 ppm (Chilo suppressalis): ≥ 80%
- mortality at 50 ppm (Diabrotica balteata; Concentration 50 ppm, Diabrotica balteata (Example B32)): 100%
- percent control (mortality or growth inhibition) at 200 ppm (Diabrotica balteata): ≥ 80%
- mortality at 12 ppm (Myzus persicae [4]): ≥ 80%
- percent control (mortality or growth inhibition) at 200 ppm (Plutella xylostella [1]): ≥ 80%
- percent control (mortality, anti-feedant effect or growth inhibition) at 200 ppm (Spodoptera littoralis [2]): ≥ 80%
- mortality at 200 ppm (Myzus persicae [3]): ≥ 80%

SMILES: C[C@H](NC(=O)c1cc(C(F)(F)F)cc(C(C)(C)C#N)c1)c1nccnc1-c1cnccn1 [Compound E7]
- percent control (mortality, anti-feedant effect or growth inhibition) at 200 ppm (Chilo suppressalis): ≥ 80%
- percent control (mortality or growth inhibition) at 200 ppm (Diabrotica balteata): ≥ 80%
- mortality at 12 ppm (Myzus persicae [4]): ≥ 80%
- percent control (mortality or growth inhibition) at 200 ppm (Plutella xylostella [1]): ≥ 80%
- percent control (mortality, anti-feedant effect or growth inhibition) at 200 ppm (Spodoptera littoralis [2]): ≥ 80%

SMILES: CC(NC(=O)c1cc(F)cc(C(F)(F)F)c1)c1nccnc1-c1cnccn1 (centres unmarked) [Compound P25, 3-fluoro-N-[1-(3-pyrazin-2-ylpyrazin-2-yl)ethyl]-5-(trifluoromethyl)benzamide]
- percent control (mortality or growth inhibition) at 200 ppm (Plutella xylostella [1]): ≥ 80%
- mortality at 200 ppm (Myzus persicae [3]): ≥ 80%

SMILES: CC(NC(=O)c1cc(Br)cc(C(F)(F)F)c1)c1nccnc1-c1cnccn1 (centres unmarked) [Compound P7, 3-bromo-N-[1-(3-pyrazin-2-ylpyrazin-2-yl)ethyl]-5-(trifluoromethyl)benzamide]
- percent control (mortality, anti-feedant effect or growth inhibition) at 200 ppm (Chilo suppressalis): ≥ 80%
- percent control (mortality or growth inhibition) at 200 ppm (Diabrotica balteata): ≥ 80%
- percent control (mortality or growth inhibition) at 200 ppm (Plutella xylostella [1]): ≥ 80%
- percent control (mortality, anti-feedant effect or growth inhibition) at 200 ppm (Spodoptera littoralis [2]): ≥ 80%
- mortality at 200 ppm (Myzus persicae [3]): ≥ 80%

SMILES: Cc1cc(C(=O)NC(C)c2nccnc2-c2cnccn2)cc(C(F)(F)F)c1 (centres unmarked) [Compound P18, 3-methyl-N-[1-(3-pyrazin-2-ylpyrazin-2-yl)ethyl]-5-(trifluoromethyl)benzamide]
- percent control (mortality, anti-feedant effect or growth inhibition) at 200 ppm (Chilo suppressalis): ≥ 80%
- percent control (mortality or growth inhibition) at 200 ppm (Plutella xylostella [1]): ≥ 80%
- mortality at 200 ppm (Myzus persicae [3]): ≥ 80%

SMILES: CC(NC(=O)c1cc(OC(F)F)cc(C(F)(F)F)c1)c1nccnc1-c1cnccn1 (centres unmarked) [Compound P20]
- percent control (mortality, anti-feedant effect or growth inhibition) at 200 ppm (Chilo suppressalis): ≥ 80%
- percent control (mortality or growth inhibition) at 200 ppm (Diabrotica balteata): ≥ 80%
- mortality at 12 ppm (Myzus persicae [4]): ≥ 80%
- percent control (mortality or growth inhibition) at 200 ppm (Plutella xylostella [1]): ≥ 80%
- percent control (mortality, anti-feedant effect or growth inhibition) at 200 ppm (Spodoptera littoralis [2]): ≥ 80%

SMILES: CC(NC(=O)c1cc(C(F)(F)F)cc(S(C)(=O)=O)c1)c1nccnc1-c1cnccn1 (centres unmarked) [Compound P16, 3-methylsulfonyl-N-[1-(3-pyrazin-2-ylpyrazin-2-yl)ethyl]-5-(trifluoromethyl)benzamide]
- percent control (mortality, anti-feedant effect or growth inhibition) at 200 ppm (Chilo suppressalis): ≥ 80%
- percent control (mortality or growth inhibition) at 200 ppm (Diabrotica balteata): ≥ 80%
- mortality at 12 ppm (Myzus persicae [4]): ≥ 80%
- percent control (mortality or growth inhibition) at 200 ppm (Plutella xylostella [1]): ≥ 80%
- percent control (mortality, anti-feedant effect or growth inhibition) at 200 ppm (Spodoptera littoralis [2]): ≥ 80%

SMILES: CC(NC(=O)c1cc(Cl)cc(Br)c1)c1nccnc1-c1cnccn1 (centres unmarked) [Compound P12, 3-bromo-5-chloro-N-[1-(3-pyrazin-2-ylpyrazin-2-yl)ethyl]benzamide]
- percent control (mortality or growth inhibition) at 200 ppm (Diabrotica balteata): ≥ 80%
- percent control (mortality or growth inhibition) at 200 ppm (Plutella xylostella [1]): ≥ 80%
- percent control (mortality, anti-feedant effect or growth inhibition) at 200 ppm (Spodoptera littoralis [2]): ≥ 80%
- mortality at 200 ppm (Myzus persicae [3]): ≥ 80%

Reference: patent US20240287047A1, “PESTICIDALLY ACTIVE DIAZINE-AMIDE COMPOUNDS” (SYNGENTA CROP PROTECTION AG, priority 2021, published 2024)
